This note sets out measurements from ChEMBL document CHEMBL1128162, “Synthesis and binding properties of myo-inositol 4,5,6-tris(phosphate) an analogue of myo-inositol 1,4,5-tris(phosphate). Correlation with the ionization state of the molecules” (Bioorg Med Chem Lett, 1995).

The target of experiment [1] is Inositol 1,4,5-trisphosphate receptor (Homo sapiens, UniProt Q14571+Q14573+Q14643). Description: Binding affinity against Ins(4,5)P2 receptor prepared from purified guinea pig hepatocytes. As to conditions: hepatocyte. On the set-up: species or system Cavia porcellus.
A short description of experiment [2]: Binding affinity against Ins(4,5,6)P3 receptor prepared from purified rat brain cerebellum. Type of experiment: tissue-based.
The nature of experiment [3]: Binding affinity against Ins(1,4,5)P3 receptor prepared from purified rat brain cerebellum. Type of experiment: tissue-based.

Consider `O=P(O)(O)O[C@@H]1[C@@H](O)[C@H](O)[C@H](O)[C@H](O)[C@H]1OP(=O)(O)O`, for which the IC50 in experiment [1] is 50 µM.

Turning to `O=P(O)(O)O[C@H]1[C@H](OP(=O)(O)O)[C@@H](O)[C@@H](O)[C@@H](O)[C@@H]1OP(=O)(O)O`, the IC50 in experiment [2] was 9.3 µM. This counts as single-digit micromolar. `O=P(O)(O)O[C@@H]1[C@H](O)[C@H](O)[C@@H](OP(=O)(O)O)[C@H](OP(=O)(O)O)[C@H]1O` [INS(1,4,5)P3] showed an IC50 in experiment [3] of 0.01 µM.
